# Measurements from patent US20250353841A1 (BIOGEN MA INC., priority 2022, published 2025).
# Tested on: mutant Huntington (HTT) protein
# Test: HTT Mutant HTRF iPSC assay (mHTT protein lowering)
# Format: cell-based
# Conditions: human iPSC derived from a HTT patient with a poly-Q49 mutation
row,SMILES,IC50 [nM]
1,"Cc1cn2nc(-c3cc(F)c4nc(NC(=O)CC5CCCCN5)cn4c3)cc(C)c2n1 (stereo not drawn) [Compound 274, N-(6-(2,8-dimethylimidazo[1,2-b]pyridazin-6-yl)-8-fluoroimidazo[1,2-a]pyridin-2-yl)-2-(piperidin-2-yl)acetamide]",< 100
2,"Fc1cc(F)c2nc(-c3cc(F)c4nc(C5CCNCC5)cn4c3)oc2c1 [Compound 124, 4,6-difluoro-2-(8-fluoro-2-(piperidin-4-yl)imidazo[1,2-a]pyridin-6-yl)benzo[d]oxazole]",1000 to 9000
3,"Cc1cn2cc(-c3cc(F)c4nn(C5CCNCC5)cc4c3)cc(F)c2n1 [Compound 136, 7-fluoro-5-(8-fluoro-2-methylimidazo[1,2-a]pyridin-6-yl)-2-(piperidin-4-yl)-2H-indazole]",100 to 1000
4,"Cc1cn2nc(-c3cc(F)c4[nH]c(C5CCC6(CC5)CNC6)nc4c3)cc(C)c2n1 [Compound 424, 6-(7-fluoro-2-(2-azaspiro[3.5]nonan-7-yl)-1H-benzo[d]imidazol-5-yl)-2,8-dimethylimidazo[1,2-b]pyridazine]",100 to 1000
5,"CCc1c[nH]c2ncc(-c3cc(F)c4nc(C5CCNCC5)cn4c3)cc12 [Compound 40, 6-(3-ethyl-1H-pyrrolo[2,3-b]pyridin-5-yl)-8-fluoro-2-(piperidin-4-yl)imidazo[1,2-a]pyridine]",1000 to 9000
6,"Cc1cn2nc(-c3cc(F)c4nn(C5CCN(C)CC5)nc4c3)cc(C)c2n1 [Compound 380, 6-(2,8-dimethylimidazo[1,2-b]pyridazin-6-yl)-4-fluoro-2-(1-methyl-4-piperidyl)benzotriazole]",100 to 1000
7,"COc1cc(-c2cc(F)c3nc(N4CCC5(CCN(C)CC5)C4)oc3c2)nn2nc(C)nc12 [Compound 505, 4-fluoro-6-(8-methoxy-2-methyl-[1,2,4]triazolo[1,5-b]pyridazin-6-yl)-2-(8-methyl-2,8-diazaspiro[4.5]decan-2-yl)benzo[d]oxazole]",< 100
8,"Cc1cn2nc(-c3cc(F)c4nc(NC(=O)C5CN(C6CC6)C5(C)C)cn4c3)cc(C)c2n1 (stereo not drawn) [Compound 285, 1-cyclopropyl-N-(6-(2,8-dimethylimidazo[1,2-b]pyridazin-6-yl)-8-fluoroimidazo[1,2-a]pyridin-2-yl)-2,2-dimethylazetidine-3-carboxamide]",100 to 1000
9,"Cc1cn2nc(-c3cc(F)c4nn(C5CCNC(C)(C)C5)nc4c3)cc(C)c2n1 (racemic) [Compound 394, 6-(2,8-dimethylimidazo[1,2-b]pyridazin-6-yl)-2-(2,2-dimethylpiperidin-4-yl)-4-fluoro-2H-benzo[d][1,2,3]triazole]",100 to 1000
10,"Cn1cc2cc(-c3cc(F)c4nc(CC5CCCNC5)cn4c3)ccc2n1 (stereo not drawn) [Compound 17, 5-(8-fluoro-2-(piperidin-3-ylmethyl)imidazo[1,2-a]pyridin-6-yl)-2-methyl-2H-indazole]",100 to 1000
11,"CCN1CCC(c2cn3cc(-c4cc(C)c5nc(C)cn5c4)cc(F)c3n2)CC1 [Compound 27, 2-(1-ethylpiperidin-4-yl)-8-fluoro-2′,8′-dimethyl-6,6′-biimidazo[1,2-a]pyridine]",100 to 1000
12,"COCCCN1CCC(c2cn3cc(-c4cc(C)c5nc(C)cn5n4)cc(F)c3n2)CC1 [Compound 45, 6-(8-fluoro-2-(1-(3-methoxypropyl)piperidin-4-yl)imidazo[1,2-a]pyridin-6-yl)-2,8-dimethylimidazo[1,2-b]pyridazine]",< 100
13,"Cc1cn2nc(-c3cc(F)c4nc(C5CCNC(C)(C)C5)cn4c3)cc(C)c2n1 (single isomer, unassigned) [Compound 234]",< 100
14,"Cc1cn2nc(-c3cc(F)c4nc(C(=O)NC5CN(CC6CC6)C5)cn4c3)cc(C)c2n1 [Compound 339, N-[1-(cyclopropylmethyl)azetidin-3-yl]-6-(2,8-dimethylimidazo[1,2-b]pyridazin-6-yl)-8-fluoro-imidazo[1,2-a]pyridine-2-carboxamide]",< 100
15,"Cc1cn2nc(-c3cc(F)c4nc(C5CCNC5)cn4c3)cc(C)c2n1 (stereo not drawn) [Compound 160, 6-(8-fluoro-2-(pyrrolidin-3-yl)imidazo[1,2-a]pyridin-6-yl)-2,8-dimethylimidazo[1,2-b]pyridazine]",< 100
16,"Cc1cn2nc(-c3cc(F)c4nc(NC(=O)[C@H]5CN[C@@H]5C)cn4c3)cc(C)c2n1 (stereo in doubt) [Compound 286, rel-(2R,3S)-N-(6-(2,8-dimethylimidazo[1,2-b]pyridazin-6-yl)-8-fluoroimidazo[1,2-a]pyridin-2-yl)-2-methylazetidine-3-carboxamide]",< 100
17,"Cc1cn2cc(-c3cc(F)c4nn(C5CCNCC5)cc4c3)cc2c(C)n1 [Compound 369, 5-(1,3-dimethylpyrrolo[1,2-a]pyrazin-7-yl)-7-fluoro-2-(piperidin-4-yl)-2H-indazole]",< 100
18,"Cc1cn2cc(-c3cc(F)c4oc(N(C)CCN5CCOCC5)nc4c3)cc(F)c2n1 [Compound 532, 7-fluoro-5-(8-fluoro-2-methylimidazo[1,2-a]pyridin-6-yl)-N-methyl-N-(2-morpholinoethyl)benzo [d]oxazol-2-amine]",1000 to 9000

row,SMILES,IC50 [nM]
1,"Cc1cn2nc(-c3cn4cc(C5CCCNC5)cc(F)c4n3)cc(C)c2n1 (stereo not drawn) [Compound 134, 6-(8-fluoro-6-(piperidin-3-yl)imidazo[1,2-a]pyridin-2-yl)-2,8-dimethylimidazo[1,2-b]pyridazine]",1000 to 9000
2,"Cc1cn2nc(-c3cc(F)c4nc([C@H]5C[C@@]6(CCNC6)C5)cn4c3)cc(C)c2n1 [Compound 193, 6-(8-fluoro-2-((2r,4r)-6-azaspiro[3.4]octan-2-yl)imidazo[1,2-a]pyridin-6-yl)-2,8-dimethylimidazo[1,2-b]pyridazine]",< 100
3,"Fc1cc(-c2cc3ccc(Cl)cc3o2)cn2cc(C3CCNCC3)nc12 [Compound 39, 6-(6-chlorobenzofuran-2-yl)-8-fluoro-2-(piperidin-4-yl)imidazo[1,2-a]pyridine]",1000 to 9000
4,"Cc1cn2nc(-c3cc(F)c4nc(C5CCC(C)(C)NC5)nn4c3)cc(C)c2n1 (stereo not drawn) [Compound 445, 6-(2,8-dimethylimidazo[1,2-b]pyridazin-6-yl)-2-(6,6-dimethylpiperidin-3-yl)-8-fluoro-[1,2,4]triazolo[1,5-a]pyridine]",100 to 1000
5,"Fc1cc(-c2ccc3nn(C(F)F)cc3c2)cn2cc(C3CCNCC3)nc12 [Compound 36, 2-(difluoromethyl)-5-(8-fluoro-2-(piperidin-4-yl)imidazo[1,2-a]pyridin-6-yl)-2H-indazole]",1000 to 9000
6,"Cc1cn2nc(-c3cc(F)c4[nH]c(C5CCN(CC6CC6)CC5)nc4c3)cc(C)c2n1 [Compound 422, 6-(2-(1-(cyclopropylmethyl)piperidin-4-yl)-7-fluoro-1H-benzo[d]imidazol-5-yl)-2,8-dimethylimidazo[1,2-b]pyridazine]",< 100
7,"Cc1cn2nc(-c3cc(F)c4nc(C5CCNC(C)C5)cn4c3)ccc2n1 (stereo not drawn) [Compound 61, 6-(8-fluoro-2-(2-methylpiperidin-4-yl)imidazo[1,2-a]pyridin-6-yl)-2-methylimidazo[1,2-b]pyridazine]",< 100
8,"Cc1cn2nc(-c3cc(F)c4nc(NC(=O)C5CNCC5(C)C)nn4c3)cc(C)c2n1 (stereo not drawn) [Compound 319, N-(6-(2,8-dimethylimidazo[1,2-b]pyridazin-6-yl)-8-fluoro-[1,2,4]triazolo[1,5-a]pyridin-2-yl)-4,4-dimethylpyrrolidine-3-carboxamide]",1000 to 9000
9,"Cc1cc(-c2cc(F)c3nc(C4CCN(C)CC4)cn3c2)cc2cn(C)nc12 [Compound 6, 5-(8-fluoro-2-(1-methylpiperidin-4-yl)imidazo[1,2-a]pyridin-6-yl)-2,7-dimethyl-2H-indazole]",100 to 1000
10,"Cn1cc2cc(-c3cc(F)c4nc(C5CCCNC5)cn4c3)ccc2n1 (stereo not drawn) [Compound 16, 5-(8-fluoro-2-(piperidin-3-yl)imidazo[1,2-a]pyridin-6-yl)-2-methyl-2H-indazole]",100 to 1000
11,"Cc1cn2nc(-c3cc(F)c4nc(C5CCNC6(CC6)C5)nn4c3)cc(C)c2n1 (stereo not drawn) [Compound 454, 6-(2,8-dimethylimidazo[1,2-b]pyridazin-6-yl)-8-fluoro-2-(4-azaspiro[2.5]octan-7-yl)-[1,2,4]triazolo[1,5-a]pyridine]",100 to 1000
12,"CN[C@H]1CC[C@H](c2cn3cc(-c4cc(F)c5nn(C)cc5c4)cc(F)c3n2)CC1 [Compound 170, (1r,4r)-4-(8-fluoro-6-(7-fluoro-2-methyl-2H-indazol-5-yl)imidazo[1,2-a]pyridin-2-yl)-N-methylcyclohexan-1-amine]",< 100
13,"Cn1cc2cc(-c3cc(F)c4nc(CC5CCCNC5)cn4c3)cc(F)c2n1 (stereo not drawn) [Compound 14, 7-fluoro-5-(8-fluoro-2-(piperidin-3-ylmethyl)imidazo[1,2-a]pyridin-6-yl)-2-methyl-2H-indazole]",100 to 1000
14,"Cc1cn2nc(-c3cc(F)c4nc(C5CCN(C)CC5)cn4c3)cc(C)c2n1 [Compound 111, 6-(8-fluoro-2-(1-methylpiperidin-4-yl)imidazo[1,2-a]pyridin-6-yl)-2,8-dimethylimidazo[1,2-b]pyridazine]",< 100
15,"Cc1cn2nc(-c3cc(F)c4nn(C5CCN(C6CC6)CC5)cc4c3)cc(C(F)F)c2n1 [Compound 354, 6-(2-(1-cyclopropylpiperidin-4-yl)-7-fluoro-2H-indazol-5-yl)-8-(difluoromethyl)-2-methylimidazo[1,2-b]pyridazine]",100 to 1000
16,"Cn1cc2cc(-c3cc(F)c4nc(C56CCC(N)(C5)C6)cn4c3)cc(F)c2n1 [Compound 72, 4-(8-fluoro-6-(7-fluoro-2-methyl-2H-indazol-5-yl)imidazo[1,2-a]pyridin-2-yl)bicyclo[2.1.1]hexan-1-amine]",1000 to 9000
17,"Cc1cn2nc(-c3cc(F)c4nc(N5CCC(N(C)C)CC5)oc4c3)cc(C)c2n1 [Compound 475, 1-(6-(2,8-dimethylimidazo[1,2-b]pyridazin-6-yl)-4-fluorobenzo[d]oxazol-2-yl)-N,N-dimethylpiperidin-4-amine]",< 100
18,"Cc1cn2cc(-c3cc(OC(F)F)c4nc(C5CCNCC5)cn4c3)cc(F)c2n1 [Compound 536, 8-(difluoromethoxy)-8′-fluoro-2′-methyl-2-(piperidin-4-yl)-6,6′-biimidazo[1,2-a]pyridine]",100 to 1000
